Experimental data from patent US20110077294A1, “R-(-) / S-(+)-7-[3-N SUBSTITUTED AMINO-2 HYDROXYPROPOXY] FLAVONES” (priority 2006, published 2011).

Experiments:
Format in all cases: in vivo
C57BL/KsBom-db/db mice [1] = assay: Serum lipid profile of treated db/db mice (antidyslipidemic activity); conditions: db/db mice, 25 mg/kg
C57BL/KsBom-db/db mice [2] = assay: Oral glucose tolerance test (OGTT) on day 10 in db/db mice; conditions: 25 mg/kg
Protocol: (§1) C57BL/KsBom-db/db mice (12-18 weeks old), weighing around 35+g bred in the animal house of CDRI, Lucknow, were used in the present experiments. The mice were housed in groups of 3 to 5 (same sex) in a room controlled for temperature (23±2.0 ° C.) and 12/12 hours light/dark cycle (lights on at 6.00 am). Body weight of each animal was measured daily from day 1 to day 10 of the experiment. All animals had free access to fresh water and normal pellet diet except on the day of the postprandial protocol (day 6) and during the overnight fast before the OGTT on day 10. The animals always had access to water during experimental periods. Blood glucose was checked every morning up till day 10. On day 10 an oral glucose tolerance test (OGTT) was performed after an overnight fasting. Blood glucose was measured at −30.0 min and test compounds were administered. The blood glucose was again measured at 0 min just post treatment and at this juncture glucose solution was given at a dose of 3 gm/kg to all the groups including the vehicle treated group. The blood glucose levels were checked at 30 min, 60 min, 90 min and 120 min post glucose administration. The data was analyzed for its significance on Prism software.

C57BL/KsBom-db/db mice [3] = assay: Blood glucose profile of db/db mice during daily treatment (antihyperglycemic activity)
Protocol: as §1

C57BL/KsBom-db/db mice [4] = assay: Serum lipid profile of treated db/db mice (antidyslipidemic activity); conditions: 25 mg/kg
Protocol: as §1

CC(C)NC[C@H](O)COc1ccc2c(=O)cc(-c3cc(O)cc(O)c3)oc2c1 [S-002-857 (S), (S)-(+)-7-(2-Hydroxy-3-isopropylaminopropoxy)-3′,5′-dihydroxyflavone]
elevation in HDL-cholesterol level than control (C57BL/KsBom-db/db mice [1]): 17.3%
Blood glucose profile, 0 min post glucose load (C57BL/KsBom-db/db mice [2]; OGTT day 10, 0 min): 13.8 ± 2.18 mM
Blood glucose % change compared to control, 0 min post glucose load (C57BL/KsBom-db/db mice [2]; OGTT day 10, 0 min, vs sham): −21.1%
Blood glucose profile, 30 min post glucose load (C57BL/KsBom-db/db mice [2]; OGTT day 10, 30 min): 25.3 ± 0.58 mM
Blood glucose % change compared to control, 30 min post glucose load (C57BL/KsBom-db/db mice [2]; OGTT day 10, 30 min, vs sham): −23.7%
Blood glucose profile, 60 min post glucose load (C57BL/KsBom-db/db mice [2]; OGTT day 10, 60 min): 19.8 ± 1.20 mM
Blood glucose % change compared to control, 60 min post glucose load (C57BL/KsBom-db/db mice [2]; OGTT day 10, 60 min, vs sham): −26.9%
Blood glucose profile, 90 min post glucose load (C57BL/KsBom-db/db mice [2]; OGTT day 10, 90 min): 15.2 ± 0.48 mM
Blood glucose % change compared to control, 90 min post glucose load (C57BL/KsBom-db/db mice [2]; OGTT day 10, 90 min, vs sham): −31.5%
Blood glucose profile, 120 min post glucose load (C57BL/KsBom-db/db mice [2]; OGTT day 10, 120 min): 11.6 ± 0.58 mM
Blood glucose % change compared to control, 120 min post glucose load (C57BL/KsBom-db/db mice [2]; OGTT day 10, 120 min, vs sham): −37.6%
Blood glucose profile, −30 min post glucose load (C57BL/KsBom-db/db mice [2]; OGTT day 10, −30 min): 8.76 ± 1.90 mM
Blood glucose % change compared to control, −30 min post glucose load (C57BL/KsBom-db/db mice [2]; OGTT day 10, −30 min, vs sham): −32.2%
effect of 10 days treatment on glucose tolerance (overall improvement in OGTT) (C57BL/KsBom-db/db mice [2]; vs sham): 27%
average blood glucose lowering (C57BL/KsBom-db/db mice [3]; 25.0 mg/kg): around 20%
Blood glucose, day 1 post treatment (C57BL/KsBom-db/db mice [3]; 25 mg/kg, day 1): 12.7 ± 2.61 mM
Blood glucose % change compared to control, day 1 (C57BL/KsBom-db/db mice [3]; 25 mg/kg, day 1, vs sham): −1.60%
Blood glucose, day 2 post treatment (C57BL/KsBom-db/db mice [3]; 25 mg/kg, day 2): 12.3 ± 2.40 mM
Blood glucose % change compared to control, day 2 (C57BL/KsBom-db/db mice [3]; 25 mg/kg, day 2, vs sham): −0.80%
Blood glucose, day 3 post treatment (C57BL/KsBom-db/db mice [3]; 25 mg/kg, day 3): 11.5 ± 1.80 mM
Blood glucose % change compared to control, day 3 (C57BL/KsBom-db/db mice [3]; 25 mg/kg, day 3, vs sham): −8.13%
Blood glucose, day 4 post treatment (C57BL/KsBom-db/db mice [3]; 25 mg/kg, day 4): 11.3 ± 2.54 mM
Blood glucose % change compared to control, day 4 (C57BL/KsBom-db/db mice [3]; 25 mg/kg, day 4, vs sham): −12.7%
Blood glucose, day 5 post treatment (C57BL/KsBom-db/db mice [3]; 25 mg/kg, day 5): 10.1 ± 2.08 mM
Blood glucose % change compared to control, day 5 (C57BL/KsBom-db/db mice [3]; 25 mg/kg, day 5, vs sham): −25.3%
Blood glucose, day 6 post treatment (C57BL/KsBom-db/db mice [3]; 25 mg/kg, day 6): 9.19 ± 2.25 mM
Blood glucose % change compared to control, day 6 (C57BL/KsBom-db/db mice [3]; 25 mg/kg, day 6, vs sham): −29.1%
Blood glucose, day 7 post treatment (C57BL/KsBom-db/db mice [3]; 25 mg/kg, day 7): 9.41 ± 1.37 mM
lowering in blood glucose, day 7 (C57BL/KsBom-db/db mice [3]; 25.0 mg/kg, day 7, statistically significant): around 37.4%
Blood glucose % change compared to control, day 7 (C57BL/KsBom-db/db mice [3]; 25 mg/kg, day 7, vs sham): −37.4%
Blood glucose, day 8 post treatment (C57BL/KsBom-db/db mice [3]; 25 mg/kg, day 8): 9.28 ± 1.02 mM
lowering in blood glucose, day 8 (C57BL/KsBom-db/db mice [3]; 25.0 mg/kg, day 8, statistically significant): ~36.8%
Blood glucose % change compared to control, day 8 (C57BL/KsBom-db/db mice [3]; 25 mg/kg, day 8, vs sham): −36.8%
Blood glucose, day 9 post treatment (C57BL/KsBom-db/db mice [3]; 25 mg/kg, day 9): 7.56 ± 2.13 mM
lowering in blood glucose, day 9 (C57BL/KsBom-db/db mice [3]; 25.0 mg/kg, day 9, statistically significant): ~43.3%
Blood glucose % change compared to control, day 9 (C57BL/KsBom-db/db mice [3]; 25 mg/kg, day 9, vs sham): −43.3%
Serum lipid profile: Cholesterol (C57BL/KsBom-db/db mice [4]): 152 ± 7.00 mg/dL
Serum lipid profile: HDL-Chol (C57BL/KsBom-db/db mice [4]): 65.0 ± 6.03 mg/dL
Serum lipid profile: Triglycerides (C57BL/KsBom-db/db mice [4]): 124 ± 3.51 mg/dL
serum cholesterol, triglycerides (lipid profile) compared to sham treated (in words) (C57BL/KsBom-db/db mice [4]): not statistically significant
Cholesterol % change compared to control (C57BL/KsBom-db/db mice [4]; vs sham): −11.2%
HDL-Chol % change compared to control (C57BL/KsBom-db/db mice [4]; vs sham): +17.3%
Triglycerides % change compared to control (C57BL/KsBom-db/db mice [4]; vs sham): −6.54%
